Calls of active or inactive are those of the source. The rule behind the calls is not given here.
Key:
Type in all cases: functional
Escherichia coli [1] = assay: Antibacterial activity against Escherichia coli assessed as growth inhibition at 900 ug/ml by NCCLS […] method; settings: read-out: IZ
Fusarium oxysporum [2] = assay: Antifungal activity against Fusarium oxysporum assessed as growth inhibition at 900 ug/ml; settings: read-out: IZ
Klebsiella pneumoniae [3] = assay: Antibacterial activity against Klebsiella pneumoniae assessed as growth inhibition at 900 ug/ml by NCCLS […] method; settings: read-out: IZ
Priestia megaterium [4] = assay: Antibacterial activity against Bacillus megaterium assessed as growth inhibition at 600 ug/ml by NCCLS […] method; settings: read-out: IZ
Klebsiella aerogenes [5] = assay: Antibacterial activity against Enterobacter aerogenes assessed as growth inhibition at 600 ug/ml by NCCLS […] method; settings: for zone of inhibition at 600 µg/mL: read-out: IZ
Candida albicans [6] = assay: Antifungal activity against Candida albicans assessed as growth inhibition at 600 ug/ml; settings: for zone of inhibition at 600 µg/mL: read-out: IZ
Streptococcus pyogenes [7] = assay: Antibacterial activity against Streptococcus pyogenes assessed as growth inhibition at 900 ug/ml by NCCLS […] method; settings: read-out: IZ
Priestia megaterium [8] = assay: Antibacterial activity against Bacillus megaterium assessed as growth inhibition at 900 ug/ml by NCCLS […] method; settings: read-out: IZ
Klebsiella pneumoniae [9] = assay: Antibacterial activity against Klebsiella pneumoniae assessed as growth inhibition at 600 ug/ml by NCCLS […] method; settings: read-out: IZ
Colletotrichum falcatum [10] = assay: Antifungal activity against Glomerella tucumanensis assessed as growth inhibition at 1200 ug/ml; settings: read-out: IZ
Streptococcus pyogenes [11] = assay: Antibacterial activity against Streptococcus pyogenes assessed as growth inhibition at 600 ug/ml by NCCLS […] method; settings: read-out: IZ
Proteus mirabilis [12] = assay: Antibacterial activity against Proteus mirabilis assessed as growth inhibition at 900 ug/ml by NCCLS […] method; settings: read-out: IZ
Bacillus subtilis [13] = assay: Antibacterial activity against Bacillus subtilis assessed as growth inhibition at 900 ug/ml by NCCLS […] method; settings: read-out: IZ
Colletotrichum falcatum [14] = assay: Antifungal activity against Glomerella tucumanensis assessed as growth inhibition at 300 ug/ml; settings: read-out: IZ
Proteus mirabilis [15] = assay: Antibacterial activity against Proteus mirabilis assessed as growth inhibition at 600 ug/ml by NCCLS […] method; settings: read-out: IZ
Exserohilum rostratum [16] = assay: Antifungal activity against Setosphaeria rostrata assessed as growth inhibition at 600 ug/ml; settings: read-out: IZ
Candida albicans [17] = assay: Antifungal activity against Candida albicans assessed as growth inhibition at 300 ug/ml; settings: for zone of inhibition at 300 µg/mL: read-out: IZ
Fusarium oxysporum [18] = assay: Antifungal activity against Fusarium oxysporum assessed as growth inhibition at 600 ug/ml; settings: read-out: IZ
Colletotrichum falcatum [19] = assay: Antifungal activity against Glomerella tucumanensis assessed as growth inhibition at 900 ug/ml; settings: read-out: IZ
Exserohilum rostratum [20] = assay: Antifungal activity against Setosphaeria rostrata assessed as growth inhibition at 300 ug/ml; settings: read-out: IZ
Colletotrichum falcatum [21] = assay: Antifungal activity against Glomerella tucumanensis assessed as growth inhibition at 600 ug/ml; settings: read-out: IZ
Exserohilum rostratum [22] = assay: Antifungal activity against Setosphaeria rostrata assessed as growth inhibition at 900 ug/ml; settings: read-out: IZ
Bacillus pumilus [23] = assay: Antibacterial activity against Bacillus pumilus assessed as growth inhibition at 600 ug/ml by NCCLS […] method; settings: for zone of inhibition at 600 µg/mL: read-out: IZ
Proteus vulgaris [24] = assay: Antibacterial activity against Proteus vulgaris assessed as growth inhibition at 600 ug/ml by NCCLS […] method; settings: read-out: IZ
Escherichia coli [25] = assay: Antibacterial activity against Escherichia coli assessed as growth inhibition at 600 ug/ml by NCCLS […] method; settings: read-out: IZ
Staphylococcus aureus [26] = assay: Antibacterial activity against Staphylococcus aureus assessed as growth inhibition at 600 ug/ml by NCCLS […] method; settings: read-out: IZ
Candida albicans [27] = assay: Antifungal activity against Candida albicans assessed as growth inhibition at 900 ug/ml; settings: for zone of inhibition at 900 µg/mL: read-out: IZ
Proteus vulgaris [28] = assay: Antibacterial activity against Proteus vulgaris assessed as growth inhibition at 900 ug/ml by NCCLS […] method; settings: read-out: IZ
Bacillus subtilis [29] = assay: Antibacterial activity against Bacillus subtilis assessed as growth inhibition at 600 ug/ml by NCCLS […] method; settings: read-out: IZ
Candida albicans [30] = assay: Antifungal activity against Candida albicans assessed as growth inhibition at 1200 ug/ml; settings: for zone of inhibition at 1200 µg/mL: read-out: IZ
Fusarium oxysporum [31] = assay: Antifungal activity against Fusarium oxysporum assessed as growth inhibition at 1200 ug/ml; settings: read-out: IZ
Exserohilum rostratum [32] = assay: Antifungal activity against Setosphaeria rostrata assessed as growth inhibition at 1200 ug/ml; settings: read-out: IZ
Bacillus pumilus [33] = assay: Antibacterial activity against Bacillus pumilus assessed as growth inhibition at 900 ug/ml by NCCLS […] method; settings: for zone of inhibition at 900 µg/mL: read-out: IZ
Fusarium oxysporum [34] = assay: Antifungal activity against Fusarium oxysporum assessed as growth inhibition at 300 ug/ml; settings: read-out: IZ
Klebsiella aerogenes [35] = assay: Antibacterial activity against Enterobacter aerogenes assessed as growth inhibition at 900 ug/ml by NCCLS […] method; settings: for zone of inhibition at 900 µg/mL: read-out: IZ
Staphylococcus aureus [36] = assay: Antibacterial activity against Staphylococcus aureus assessed as growth inhibition at 900 ug/ml by NCCLS […] method; settings: read-out: IZ

| SMILES | zone of inhibition at 900 µg/mL (Escherichia coli [1]) [mm] | zone of inhibition at 900 µg/mL (Fusarium oxysporum [2]) [mm] | zone of inhibition at 900 µg/mL (Klebsiella pneumoniae [3]) [mm] | zone of inhibition at 600 µg/mL (Priestia megaterium [4]) [mm] | zone of inhibition at 900 µg/mL (Streptococcus pyogenes [7]) [mm] | zone of inhibition at 900 µg/mL (Priestia megaterium [8]) [mm] | zone of inhibition at 600 µg/mL (Klebsiella pneumoniae [9]) [mm] | zone of inhibition at 1200 µg/mL (Colletotrichum falcatum [10]) [mm] | zone of inhibition at 600 µg/mL (Streptococcus pyogenes [11]) [mm] | zone of inhibition at 900 µg/mL (Proteus mirabilis [12]) [mm] | zone of inhibition at 900 µg/mL (Bacillus subtilis [13]) [mm] | zone of inhibition at 300 µg/mL (Colletotrichum falcatum [14]) [mm] | zone of inhibition at 600 µg/mL (Proteus mirabilis [15]) [mm] | zone of inhibition at 600 µg/mL (Exserohilum rostratum [16]) [mm] | zone of inhibition at 600 µg/mL (Fusarium oxysporum [18]) [mm] | zone of inhibition at 900 µg/mL (Colletotrichum falcatum [19]) [mm] | zone of inhibition at 300 µg/mL (Exserohilum rostratum [20]) [mm] | zone of inhibition at 600 µg/mL (Colletotrichum falcatum [21]) [mm] | zone of inhibition at 900 µg/mL (Exserohilum rostratum [22]) [mm] | zone of inhibition at 600 µg/mL (Proteus vulgaris [24]) [mm] | also measured |
| --- | --- | --- | --- | --- | --- | --- | --- | --- | --- | --- | --- | --- | --- | --- | --- | --- | --- | --- | --- | --- | --- |
| COc1ccc2c(OCCCN3CCN(Cc4ccc(F)cc4F)CC3)c(-c3ccccc3)c(=O)oc2c1 | 4.8 | 16.9 | 6.34 | 4.48 | 10.2 | 8.98 | 3.24 | 25.9 | 5.3 | 4.29 | 10.7 | 3.24 | 2.65 | 7.68 | 8.56 | 13.6 | 5.02 | 5.56 | 14.2 | 4.2 | growth inhibition (GI) (Klebsiella aerogenes [5]): inactive; zone of inhibition at 600 µg/mL (Candida albicans [6]): 4.5 mm; zone of inhibition at 300 µg/mL (Candida albicans [17]): 2.25 mm; zone of inhibition at 600 µg/mL (Bacillus pumilus [23]): 5.02 mm; zone of inhibition at 600 µg/mL (Escherichia coli [25]): 2.6 mm; zone of inhibition at 600 µg/mL (Staphylococcus aureus [26]): 3.41 mm; zone of inhibition at 900 µg/mL (Candida albicans [27]): 9.6 mm; zone of inhibition at 900 µg/mL (Proteus vulgaris [28]): 8.02 mm; zone of inhibition at 600 µg/mL (Bacillus subtilis [29]): 5.3 mm; zone of inhibition at 1200 µg/mL (Candida albicans [30]): 18.2 mm; zone of inhibition at 1200 µg/mL (Fusarium oxysporum [31]): 28.1 mm; zone of inhibition at 1200 µg/mL (Exserohilum rostratum [32]): 26.8 mm; zone of inhibition at 900 µg/mL (Bacillus pumilus [33]): 10.7 mm; zone of inhibition at 300 µg/mL (Fusarium oxysporum [34]): 4.2 mm; growth inhibition (GI) (Klebsiella aerogenes [35]): inactive; zone of inhibition at 900 µg/mL (Staphylococcus aureus [36]): 6.48 mm |
| COc1ccc2c(OCCCN3CCN(Cc4ccc(Br)cc4)CC3)c(-c3ccccc3)c(=O)oc2c1 | 4.01 | 14.2 | 6.24 | 6.25 | 13.1 | 12.1 | 2.89 | 33.8 | 6.25 | 5.02 | 4.16 | 5.62 | 4.28 | 8.12 | 6.15 | 19.4 | 4.56 | 9.76 | 15.6 | 5.02 | zone of inhibition at 600 µg/mL (Klebsiella aerogenes [5]): 3.25 mm; zone of inhibition at 600 µg/mL (Candida albicans [6]): 5.84 mm; zone of inhibition at 300 µg/mL (Candida albicans [17]): 3.02 mm; growth inhibition (GI) (Bacillus pumilus [23]): inactive; zone of inhibition at 600 µg/mL (Escherichia coli [25]): 2 mm; zone of inhibition at 600 µg/mL (Staphylococcus aureus [26]): 4.25 mm; zone of inhibition at 900 µg/mL (Candida albicans [27]): 10.1 mm; zone of inhibition at 900 µg/mL (Proteus vulgaris [28]): 10.2 mm; zone of inhibition at 600 µg/mL (Bacillus subtilis [29]): 2.08 mm; zone of inhibition at 1200 µg/mL (Candida albicans [30]): 19.6 mm; zone of inhibition at 1200 µg/mL (Fusarium oxysporum [31]): 29.4 mm; zone of inhibition at 1200 µg/mL (Exserohilum rostratum [32]): 31.3 mm; growth inhibition (GI) (Bacillus pumilus [33]): inactive; zone of inhibition at 300 µg/mL (Fusarium oxysporum [34]): 3.56 mm; zone of inhibition at 900 µg/mL (Klebsiella aerogenes [35]): 6.8 mm; zone of inhibition at 900 µg/mL (Staphylococcus aureus [36]): 8 mm |
| CCCOc1ccc(CN2CCN(CCCOc3c(-c4ccccc4)c(=O)oc4cc(OC)ccc34)CC2)cc1 | 3.49 | 12.1 | 4.25 | 4.2 | 6.84 | 8.4 | 2.04 | 32.5 | 3.25 | 2.48 | 4.25 | 4.49 | 1.02 | 6.02 | 4.92 | 16.8 | 3.25 | 7.6 | 14.6 | 4.2 | zone of inhibition at 600 µg/mL (Klebsiella aerogenes [5]): 2 mm; growth inhibition (GI) (Candida albicans [6]): inactive; growth inhibition (GI) (Candida albicans [17]): inactive; zone of inhibition at 600 µg/mL (Bacillus pumilus [23]): 3.2 mm; zone of inhibition at 600 µg/mL (Escherichia coli [25]): 1.25 mm; zone of inhibition at 600 µg/mL (Staphylococcus aureus [26]): 1.55 mm; growth inhibition (GI) (Candida albicans [27]): inactive; zone of inhibition at 900 µg/mL (Proteus vulgaris [28]): 8.09 mm; zone of inhibition at 600 µg/mL (Bacillus subtilis [29]): 2.5 mm; growth inhibition (GI) (Candida albicans [30]): inactive; zone of inhibition at 1200 µg/mL (Fusarium oxysporum [31]): 19.8 mm; zone of inhibition at 1200 µg/mL (Exserohilum rostratum [32]): 28.6 mm; zone of inhibition at 900 µg/mL (Bacillus pumilus [33]): 6.8 mm; zone of inhibition at 300 µg/mL (Fusarium oxysporum [34]): 2.48 mm; zone of inhibition at 900 µg/mL (Klebsiella aerogenes [35]): 4.02 mm; zone of inhibition at 900 µg/mL (Staphylococcus aureus [36]): 3.25 mm |
| COc1ccc2c(OCCCN3CCN(Cc4cccnc4)CC3)c(-c3ccccc3)c(=O)oc2c1 | 6.21 | 18.8 | 7.93 | 7.65 | 16.8 | 13.4 | 3.78 | 27 | 9.12 | 21.6 | 15.1 | 4.45 | 11.3 | 6.76 | 8.78 | 13.2 | 2.9 | 7.76 | 11.9 | 8.76 | zone of inhibition at 600 µg/mL (Klebsiella aerogenes [5]): 4.22 mm; zone of inhibition at 600 µg/mL (Candida albicans [6]): 6.14 mm; zone of inhibition at 300 µg/mL (Candida albicans [17]): 3.21 mm; growth inhibition (GI) (Bacillus pumilus [23]): inactive; zone of inhibition at 600 µg/mL (Escherichia coli [25]): 3.87 mm; zone of inhibition at 600 µg/mL (Staphylococcus aureus [26]): 11.6 mm; zone of inhibition at 900 µg/mL (Candida albicans [27]): 13.7 mm; zone of inhibition at 900 µg/mL (Proteus vulgaris [28]): 17.1 mm; zone of inhibition at 600 µg/mL (Bacillus subtilis [29]): 8.76 mm; zone of inhibition at 1200 µg/mL (Candida albicans [30]): 24.6 mm; zone of inhibition at 1200 µg/mL (Fusarium oxysporum [31]): 27.9 mm; zone of inhibition at 1200 µg/mL (Exserohilum rostratum [32]): 23.4 mm; growth inhibition (GI) (Bacillus pumilus [33]): inactive; zone of inhibition at 300 µg/mL (Fusarium oxysporum [34]): 3.47 mm; zone of inhibition at 900 µg/mL (Klebsiella aerogenes [35]): 8.56 mm; zone of inhibition at 900 µg/mL (Staphylococcus aureus [36]): 21.4 mm |
